The values that follow come from patent US20210308211A1, “METHOD OF TREATING VIRAL INFECTIONS” (priority 2020, published 2021).

In one experiment the target is T1, HSC70 protein (Bos taurus, UniProt P19120).
T1 construct: purchased Stressgen
The experiment in a line: BIAcore binding of peptides to immobilized HSC70. More on the design: species or system bovine. How it is done: BIAcore 3000 system (Biacore AB) was used to evaluate the binding of P140 peptides to HSC70 protein (Page et al., 2009, and 2011). Sensor chip CM5, surfactant P20, amine coupling kit containing N-hydroxysuccinimide (NHS) and N-ethyl-N′-dimethylaminopropyl carbodiimide (EDC), 2-(2-pyridinyldithio)ethaneamine (PDEA) and ethanolamine were from Biacore AB. Biosensor assays were performed with HBS-EP buffer as running buffer (10 mM HEPES, 150 mM NaCl, 3 mM EDTA, 0.005% surfactant P20, pH 7.4). The compounds were diluted in the running buffer. The sensor chip surface was regenerated after each experiment by injecting 10 μL of 10 mM HCl. Recombinant bovine HSC70 (Stressgen) was immobilized on flow cells of a CM5 sensor chip through its thiol groups using 35 μL PDEA in 50 mM borate buffer, pH 8.3 on the NHS/EDC-activated matrix. Then, 35 μL of HSC70 (100 μg/mL in formate buffer, pH 4.3) were injected until a response of 13,000 response units (RU) corresponding to 13 ng/mm^2 of HSC70 was immobilized. Twenty μL of a 50 mM cysteine/1 M NaCl solution was used to saturate unoccupied sites on the chip. The direct binding measurement of P140 peptides to HSC70 was carried out at 25° C. with a constant flow rate of 20 μL/min. P140 peptide and analogues were injected in the flux at different concentrations for 3 min, followed by a dissociation phase of 3 min. The kinetic parameters were calculated using the BIAeval 3.1 software on a personal computer. Analysis was performed using the simple 1:1 Langmuir binding model. The specific binding profiles were obtained after subtracting the response signal from the control empty channel and from blank-buffer injection. The fitting to each model was judged by the χ^2 value and randomness of residue distribution compared to the theoretical model.

Another experiment has as its system C57BL/6 mice. Kind of experiment: K/B×N serum transfer arthritis, preventive protocol. The class given is in vivo, mouse. Here is the method: The TCR transgenic mice expressing the KRN and the MHC class II A^g7 molecule (K/B×N mice) have developed a severe inflammatory arthritis. The administration of serum of these mice to healthy recipient mice causes inflammatory arthritis over a period of about 15 days with a peak ignition around day 7 post-injection.
Two mouse serum administrations from K/B×N were performed (day 0 and day 2). The injection of serum (100 μl/mouse) is performed by intra-peritoneal (ip) injection in mice C57BL/6 (or B6) for 8 weeks (n=10); untreated mouse (n=10).
The P140 peptide (100 μg/100 μl; iv retro-orbital) was administered as follows:
Curative treatment: Injection at day 1 and day 4, to guide the peak of inflammatory disease. Preventive treatment: Injection at day −7 and day −2. Bleeding S0 (at day 0) is followed by bloodletting conducted every six days to dispose of serum. The study ends when inflammation has returned to its basal level, to around day 20 (see FIG. 19).
During the peak of inflammation, every day the animals are evaluated, and swelling score of articulation is established. It is ranged from 0 to 4 and based on a joint observation of the animal. In practice, this score is given for each leg (4 values) and these values are added together to get a general score that ranges from 0 to 16 (FIG. 20).

For the next experiment, the system named is Lewis rats. The experiment in a line: Chronic-EAN rat model of CIDP. To be noted: 100 μg/rat i.p.

Non-standard residues stand in square brackets, D forms with d. Residues, ends and D or L forms follow the SMILES beside them. pS = N[C@@H](COP(=O)(O)O)C(=O)O Where only a bound is given, the exact number is not on record here.

T1 sequence (P19120 whole entry): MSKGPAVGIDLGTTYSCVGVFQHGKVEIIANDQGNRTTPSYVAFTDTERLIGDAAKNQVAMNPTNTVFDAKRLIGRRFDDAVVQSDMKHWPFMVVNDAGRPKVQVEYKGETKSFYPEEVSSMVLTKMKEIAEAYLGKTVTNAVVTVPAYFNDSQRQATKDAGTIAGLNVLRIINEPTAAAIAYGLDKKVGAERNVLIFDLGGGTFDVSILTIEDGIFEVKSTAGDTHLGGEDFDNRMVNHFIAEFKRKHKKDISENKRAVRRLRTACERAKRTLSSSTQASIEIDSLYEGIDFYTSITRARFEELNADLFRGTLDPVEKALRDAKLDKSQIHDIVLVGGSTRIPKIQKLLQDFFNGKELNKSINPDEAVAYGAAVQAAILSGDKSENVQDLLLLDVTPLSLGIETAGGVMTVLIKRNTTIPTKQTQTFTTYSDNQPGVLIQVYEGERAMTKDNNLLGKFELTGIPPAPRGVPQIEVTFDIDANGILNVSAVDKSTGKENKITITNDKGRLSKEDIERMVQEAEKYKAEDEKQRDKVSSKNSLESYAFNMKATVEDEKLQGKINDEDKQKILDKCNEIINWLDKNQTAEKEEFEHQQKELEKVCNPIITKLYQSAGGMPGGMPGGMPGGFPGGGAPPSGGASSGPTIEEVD
Method for Lewis rats: Male Lewis rats, 7-8 weeks old, weighing 250-270 g, purchased from Charles River (Domaine des Oncins, L′Arbresle, France) were used.
Body weight and clinical scores are assessed daily until 60 days post-immunization (dpi). Severity of paresis is graded as follows: 0=no illness; 1=flaccid tail; 2=moderate paraparesis; 3=severe paraparesis; 4=tetraparesis; 5=death.
100 μg/rat P140 peptide in 500 μL water/saline (1:10) were intraperitoneally injected at 5, 7, 9, 13 dpi and 3 times per week from 22 dpi until the end of the study.

As to `CC[C@H](C)[C@H](NC(=O)[C@H](Cc1ccccc1)NC(=O)[C@H](C)NC(=O)[C@H](Cc1ccc(O)cc1)NC(=O)CNC(=O)[C@H](CCCNC(=N)N)NC(=O)[C@@H]1CCCN1C(=O)[C@H](CCCCN)NC(=O)CNC(=O)[C@H](COP(=O)(O)O)NC(=O)[C@H](CCCNC(=N)N)NC(=O)[C@H](CCCCN)NC(=O)[C@H](CO)NC(=O)[C@H](Cc1ccc(O)cc1)NC(=O)[C@@H](NC(=O)[C@H](CCSC)NC(=O)[C@H](Cc1c[nH]cn1)NC(=O)[C@@H](NC(=O)[C@@H](N)CCCNC(=N)N)[C@@H](C)CC)C(C)C)C(=O)N[C@@H](CCC(=O)O)C(=O)N[C@@H](Cc1ccc(O)cc1)C(=O)O` [Compound P140] (H-RIHMVYSKR[pS]GKPRGYAFIEY-OH; N-terminus and C-terminus assumed), on HSC70 protein (25° C., 1:1 Langmuir model), the “Rmax (RU)” value was 83.3 RU. Further, the kon on HSC70 protein (25° C., 1:1 Langmuir model, analyte 1.56-25 μM, read-out: ka) amounted to 450 M⁻¹ s⁻¹. In addition, on HSC70 protein (P140 compared with P140 M(O)), the “Affinity for HSC70, oxidized vs non-oxidized peptide (in words)” value was “not statistically different”. For the same compound, the “Req (RU)” value on HSC70 protein (peptide 1.56 μM) amounted to 15.3 RU; on HSC70 protein (peptide 3.12 μM) it was 25.8 RU; at HSC70 protein (peptide 6.25 μM), 39.5 RU; at HSC70 protein (peptide 12.5 μM), 53.6 RU; on HSC70 protein (peptide 25 μM), 65.2 RU. At HSC70 protein (peptide 25 μM), the “kobs” value was 0.0144 s⁻¹. Further, in the experiment on C57BL/6 mice (K/B×N model), the “Clinical signs (swelling joints, weight loss, inflammation score) (in words)” value is on record as “tend to be attenuated”. In the experiment on C57BL/6 mice (preventive protocol (injection day −7 and day −2), day 1 to day 7, controls 10%), this compound showed a Weight loss of 5%. Also, the “Increase in size of joints, right back legs” value in the experiment with C57BL/6 mice (preventive protocol, day 0 to day 7, control mice about 22%) was “around 12%”. Moreover, the “Increase in size of the joint, left hind paws” value in the experiment with C57BL/6 mice (preventive protocol, day 0 to day 7, controls about 30%) is “about 15%”. The “General inflammation score, maximum” value in the experiment on C57BL/6 mice (preventive protocol, sum of four legs, controls around 7, p=0.0156) is not above 5. Further, the “Increase in size of articulation, left front leg” value in the experiment with C57BL/6 mice (preventive protocol, controls 45%, P=0.0397) worked out at 20%. Also, in the experiment on C57BL/6 mice (preventive protocol, controls nearly 45%, p=0.0069), the “Swelling in the joints of right front leg” value is reported as “+20%”. In addition, in the experiment with Lewis rats, the “Chronicity of the disease” value is listed as “seems abolish the chronicity”. In the experiment on Lewis rats (compared to untreated rats), the Maximal clinical scores entry is recorded as “decreased”. Further, the “Onset of the disease” value in the experiment with Lewis rats (compared to untreated rats) is recorded as “delayed”. Further, the “Weight loss during the disease course” value in the experiment on Lewis rats (compared to untreated rats) is reported as “less important”.
